Results published in ChEMBL document CHEMBL4507268 (2021).

Assays:
Conditions in all cases: Compound concentration 1000.0 nM
[1] = tested on: Phosphatidylinositol 4,5-bisphosphate 3-kinase catalytic subunit alpha isoform (Homo sapiens), P42336 [Q546K]
[2] = target: Misshapen-like kinase 1 (Homo sapiens) (UniProt Q8N4C8)
[3] = tested on: Epidermal growth factor receptor (Homo sapiens), P00533 [UNDEFINED MUTATION]
[4] = target: Mitotic checkpoint serine/threonine-protein kinase BUB1 (Homo sapiens) (UniProt O43683)
Mitotic checkpoint serine/threonine-protein kinase BUB1 (Homo sapiens), sequence (O43683 whole entry, looked up): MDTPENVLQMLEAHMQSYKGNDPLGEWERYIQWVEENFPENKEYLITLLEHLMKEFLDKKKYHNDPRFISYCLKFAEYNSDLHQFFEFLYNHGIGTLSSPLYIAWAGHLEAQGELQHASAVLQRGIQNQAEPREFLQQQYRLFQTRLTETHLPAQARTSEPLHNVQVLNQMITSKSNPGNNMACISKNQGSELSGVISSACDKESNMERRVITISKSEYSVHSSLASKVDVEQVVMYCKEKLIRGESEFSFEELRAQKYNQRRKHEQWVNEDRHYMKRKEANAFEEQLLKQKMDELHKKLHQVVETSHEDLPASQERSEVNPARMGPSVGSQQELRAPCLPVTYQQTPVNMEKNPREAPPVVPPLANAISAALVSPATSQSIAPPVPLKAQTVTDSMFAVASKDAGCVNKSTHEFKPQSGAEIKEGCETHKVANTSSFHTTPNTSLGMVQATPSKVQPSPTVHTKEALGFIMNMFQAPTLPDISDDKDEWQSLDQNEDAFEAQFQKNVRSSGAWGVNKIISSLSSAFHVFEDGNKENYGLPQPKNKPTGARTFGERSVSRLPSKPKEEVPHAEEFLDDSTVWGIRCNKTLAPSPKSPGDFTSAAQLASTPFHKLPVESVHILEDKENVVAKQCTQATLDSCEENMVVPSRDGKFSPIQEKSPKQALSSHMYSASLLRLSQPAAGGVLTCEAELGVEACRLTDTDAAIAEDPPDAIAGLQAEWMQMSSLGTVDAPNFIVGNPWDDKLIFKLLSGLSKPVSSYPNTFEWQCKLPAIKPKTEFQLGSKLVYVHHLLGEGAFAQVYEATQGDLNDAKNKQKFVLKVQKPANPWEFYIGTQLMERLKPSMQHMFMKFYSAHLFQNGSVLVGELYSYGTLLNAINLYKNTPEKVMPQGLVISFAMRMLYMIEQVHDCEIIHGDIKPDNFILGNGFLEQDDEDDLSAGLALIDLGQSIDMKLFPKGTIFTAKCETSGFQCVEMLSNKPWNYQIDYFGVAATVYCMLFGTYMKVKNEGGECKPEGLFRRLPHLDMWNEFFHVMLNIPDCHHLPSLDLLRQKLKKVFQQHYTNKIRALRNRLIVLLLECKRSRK

[5] = target: Tyrosine-protein kinase JAK1 (Homo sapiens) (UniProt P23458)
Tyrosine-protein kinase JAK1 (Homo sapiens), sequence (P23458 whole entry): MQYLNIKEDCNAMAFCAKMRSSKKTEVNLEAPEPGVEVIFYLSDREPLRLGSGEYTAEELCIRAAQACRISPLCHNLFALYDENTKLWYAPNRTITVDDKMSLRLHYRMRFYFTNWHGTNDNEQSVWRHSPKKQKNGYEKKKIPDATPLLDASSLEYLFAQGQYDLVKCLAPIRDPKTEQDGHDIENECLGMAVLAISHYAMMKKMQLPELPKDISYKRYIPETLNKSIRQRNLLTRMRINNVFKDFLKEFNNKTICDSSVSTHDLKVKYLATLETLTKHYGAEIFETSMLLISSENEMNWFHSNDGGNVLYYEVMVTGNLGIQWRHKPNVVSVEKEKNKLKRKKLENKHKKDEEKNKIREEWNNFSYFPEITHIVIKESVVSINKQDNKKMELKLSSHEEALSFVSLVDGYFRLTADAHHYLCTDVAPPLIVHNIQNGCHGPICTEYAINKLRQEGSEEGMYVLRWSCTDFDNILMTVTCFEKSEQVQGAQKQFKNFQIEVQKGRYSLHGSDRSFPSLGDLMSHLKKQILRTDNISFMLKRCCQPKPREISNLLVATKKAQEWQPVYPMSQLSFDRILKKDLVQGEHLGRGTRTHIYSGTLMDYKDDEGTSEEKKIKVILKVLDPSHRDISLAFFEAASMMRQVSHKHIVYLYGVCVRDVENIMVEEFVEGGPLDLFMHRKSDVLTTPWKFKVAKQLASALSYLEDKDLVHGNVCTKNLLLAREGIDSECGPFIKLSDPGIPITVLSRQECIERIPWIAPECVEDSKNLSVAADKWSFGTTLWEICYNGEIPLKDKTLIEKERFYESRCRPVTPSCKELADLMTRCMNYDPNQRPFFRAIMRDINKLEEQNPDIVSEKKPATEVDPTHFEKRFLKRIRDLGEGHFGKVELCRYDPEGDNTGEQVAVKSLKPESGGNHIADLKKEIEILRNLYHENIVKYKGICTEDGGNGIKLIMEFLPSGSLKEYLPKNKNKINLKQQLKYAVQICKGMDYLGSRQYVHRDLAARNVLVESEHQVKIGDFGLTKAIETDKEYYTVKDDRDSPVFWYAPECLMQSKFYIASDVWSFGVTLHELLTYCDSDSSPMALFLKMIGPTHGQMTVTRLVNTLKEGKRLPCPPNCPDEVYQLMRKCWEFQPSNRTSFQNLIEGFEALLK

[6] = target: T1, Inhibitor of nuclear factor kappa-B kinase subunit beta (Homo sapiens) (UniProt O14920)
T1 sequence (whole entry): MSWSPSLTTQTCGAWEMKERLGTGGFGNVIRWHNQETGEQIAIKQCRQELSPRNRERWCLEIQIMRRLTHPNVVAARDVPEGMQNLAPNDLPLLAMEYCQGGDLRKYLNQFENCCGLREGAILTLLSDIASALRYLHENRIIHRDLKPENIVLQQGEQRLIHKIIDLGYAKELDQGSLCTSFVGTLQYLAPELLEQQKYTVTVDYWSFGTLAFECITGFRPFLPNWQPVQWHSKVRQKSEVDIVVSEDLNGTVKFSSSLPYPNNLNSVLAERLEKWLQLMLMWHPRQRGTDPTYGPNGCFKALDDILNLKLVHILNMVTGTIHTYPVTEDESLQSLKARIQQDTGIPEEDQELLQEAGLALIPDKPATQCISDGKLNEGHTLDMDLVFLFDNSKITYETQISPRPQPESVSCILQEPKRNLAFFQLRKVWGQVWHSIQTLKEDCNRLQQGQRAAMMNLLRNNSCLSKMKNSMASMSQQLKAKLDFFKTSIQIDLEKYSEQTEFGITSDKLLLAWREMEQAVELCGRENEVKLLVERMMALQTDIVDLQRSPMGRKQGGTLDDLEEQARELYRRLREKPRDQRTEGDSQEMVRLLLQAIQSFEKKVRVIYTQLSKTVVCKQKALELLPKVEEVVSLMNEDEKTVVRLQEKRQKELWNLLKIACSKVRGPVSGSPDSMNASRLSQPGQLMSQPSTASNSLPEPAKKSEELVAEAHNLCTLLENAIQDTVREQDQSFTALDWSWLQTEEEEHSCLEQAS

[7] = target: T2, Ephrin type-A receptor 1 (Homo sapiens) (UniProt P21709)
T2 sequence (whole entry): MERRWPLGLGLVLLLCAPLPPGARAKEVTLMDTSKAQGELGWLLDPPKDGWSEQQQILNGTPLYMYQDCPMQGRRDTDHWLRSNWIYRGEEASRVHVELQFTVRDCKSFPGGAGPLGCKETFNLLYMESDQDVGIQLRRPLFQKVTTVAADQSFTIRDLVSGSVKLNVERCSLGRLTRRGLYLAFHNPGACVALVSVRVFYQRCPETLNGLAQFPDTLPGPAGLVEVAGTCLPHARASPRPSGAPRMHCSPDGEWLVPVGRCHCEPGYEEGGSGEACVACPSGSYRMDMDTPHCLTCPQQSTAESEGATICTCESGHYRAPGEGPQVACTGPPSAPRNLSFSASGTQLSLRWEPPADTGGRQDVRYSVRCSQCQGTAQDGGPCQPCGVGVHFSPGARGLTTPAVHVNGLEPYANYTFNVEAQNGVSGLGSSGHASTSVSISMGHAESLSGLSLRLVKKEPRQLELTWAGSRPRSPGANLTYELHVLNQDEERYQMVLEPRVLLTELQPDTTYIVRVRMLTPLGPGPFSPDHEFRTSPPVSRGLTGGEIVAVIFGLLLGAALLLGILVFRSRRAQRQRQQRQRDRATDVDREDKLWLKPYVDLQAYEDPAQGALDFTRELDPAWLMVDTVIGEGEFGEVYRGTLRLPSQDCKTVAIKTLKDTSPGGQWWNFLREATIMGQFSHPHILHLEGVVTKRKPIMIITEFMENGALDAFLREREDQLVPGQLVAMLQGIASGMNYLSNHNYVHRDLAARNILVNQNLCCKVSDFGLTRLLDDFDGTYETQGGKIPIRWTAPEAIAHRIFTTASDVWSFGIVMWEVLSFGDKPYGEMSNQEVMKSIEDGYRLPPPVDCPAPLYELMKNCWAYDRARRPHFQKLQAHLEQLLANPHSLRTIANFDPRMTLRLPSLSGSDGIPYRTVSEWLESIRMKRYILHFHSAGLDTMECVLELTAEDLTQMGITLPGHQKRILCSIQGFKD

Epidermal growth factor receptor (Homo sapiens), P00533 [UNDEFINED MUTATION], sequence (P00533 whole entry, looked up, change not shown): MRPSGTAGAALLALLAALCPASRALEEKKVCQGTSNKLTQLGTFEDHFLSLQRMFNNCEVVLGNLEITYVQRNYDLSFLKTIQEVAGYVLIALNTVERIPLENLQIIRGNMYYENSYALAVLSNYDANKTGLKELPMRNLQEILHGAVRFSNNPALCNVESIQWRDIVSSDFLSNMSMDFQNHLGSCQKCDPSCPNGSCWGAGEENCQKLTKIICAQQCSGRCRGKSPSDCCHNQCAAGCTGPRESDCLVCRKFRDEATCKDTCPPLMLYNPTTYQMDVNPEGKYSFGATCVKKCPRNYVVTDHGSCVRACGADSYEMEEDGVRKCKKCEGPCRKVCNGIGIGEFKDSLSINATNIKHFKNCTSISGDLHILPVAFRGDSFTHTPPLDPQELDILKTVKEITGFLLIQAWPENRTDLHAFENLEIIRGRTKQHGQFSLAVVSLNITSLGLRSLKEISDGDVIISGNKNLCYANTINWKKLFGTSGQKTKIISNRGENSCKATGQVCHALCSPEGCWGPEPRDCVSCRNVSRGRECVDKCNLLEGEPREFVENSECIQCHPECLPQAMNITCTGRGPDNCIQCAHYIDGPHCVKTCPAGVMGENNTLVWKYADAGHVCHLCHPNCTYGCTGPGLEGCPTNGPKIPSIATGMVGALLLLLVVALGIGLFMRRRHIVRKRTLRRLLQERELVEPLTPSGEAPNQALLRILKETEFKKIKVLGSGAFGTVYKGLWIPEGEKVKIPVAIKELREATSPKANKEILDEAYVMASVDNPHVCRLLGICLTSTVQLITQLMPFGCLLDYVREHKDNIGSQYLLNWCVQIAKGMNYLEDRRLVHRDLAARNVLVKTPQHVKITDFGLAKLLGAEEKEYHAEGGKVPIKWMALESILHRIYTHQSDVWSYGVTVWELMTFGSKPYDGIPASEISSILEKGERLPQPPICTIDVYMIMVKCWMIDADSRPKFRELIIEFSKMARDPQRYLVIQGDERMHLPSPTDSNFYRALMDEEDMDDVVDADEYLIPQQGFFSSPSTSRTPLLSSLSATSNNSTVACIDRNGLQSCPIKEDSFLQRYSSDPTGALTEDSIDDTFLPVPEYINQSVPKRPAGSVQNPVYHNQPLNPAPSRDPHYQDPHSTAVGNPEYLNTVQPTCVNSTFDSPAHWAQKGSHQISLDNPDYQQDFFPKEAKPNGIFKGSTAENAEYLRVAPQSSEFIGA
Phosphatidylinositol 4,5-bisphosphate 3-kinase catalytic subunit alpha isoform (Homo sapiens), P42336 [Q546K], sequence (P42336 whole entry Q546K, canonical isoform): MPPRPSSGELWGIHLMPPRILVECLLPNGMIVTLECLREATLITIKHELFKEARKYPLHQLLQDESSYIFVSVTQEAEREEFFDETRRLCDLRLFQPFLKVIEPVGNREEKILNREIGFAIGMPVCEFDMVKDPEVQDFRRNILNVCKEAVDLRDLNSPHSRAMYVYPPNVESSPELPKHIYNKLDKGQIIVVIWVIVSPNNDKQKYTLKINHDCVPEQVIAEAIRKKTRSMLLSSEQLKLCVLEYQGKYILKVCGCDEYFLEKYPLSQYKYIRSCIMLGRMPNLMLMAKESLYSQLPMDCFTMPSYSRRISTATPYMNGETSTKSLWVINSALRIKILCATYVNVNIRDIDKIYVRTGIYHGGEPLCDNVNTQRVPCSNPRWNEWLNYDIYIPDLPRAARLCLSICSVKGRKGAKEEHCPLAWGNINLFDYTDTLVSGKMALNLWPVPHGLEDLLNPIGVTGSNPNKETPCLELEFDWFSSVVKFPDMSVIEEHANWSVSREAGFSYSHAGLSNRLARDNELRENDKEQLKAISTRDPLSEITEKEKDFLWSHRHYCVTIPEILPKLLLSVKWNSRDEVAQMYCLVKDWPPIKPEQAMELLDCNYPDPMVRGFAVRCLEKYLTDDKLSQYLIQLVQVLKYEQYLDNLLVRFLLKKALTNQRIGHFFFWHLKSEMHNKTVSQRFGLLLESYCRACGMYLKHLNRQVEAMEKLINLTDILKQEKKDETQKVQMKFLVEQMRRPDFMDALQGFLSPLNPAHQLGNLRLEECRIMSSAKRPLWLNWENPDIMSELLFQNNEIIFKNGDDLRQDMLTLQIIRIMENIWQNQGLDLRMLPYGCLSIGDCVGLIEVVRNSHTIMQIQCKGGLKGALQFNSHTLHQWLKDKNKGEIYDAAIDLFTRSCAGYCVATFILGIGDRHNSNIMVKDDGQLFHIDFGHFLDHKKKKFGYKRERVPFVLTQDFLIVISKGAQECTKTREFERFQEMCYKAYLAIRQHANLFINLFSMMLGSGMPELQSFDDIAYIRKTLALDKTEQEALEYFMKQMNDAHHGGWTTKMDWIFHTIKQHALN

Cc1nc(C2CCN(C(=O)c3ccc(OC(F)(F)F)cc3N)CC2)c2ncc(N3CCN(C)CC3)cc2n1 [BAY-693]
residual activity [1]: 88% | residual activity [2]: 93% | residual activity [3]: 49% | residual activity [4]: 96% | residual activity [5]: 95% | residual activity [6]: 78% | residual activity [7]: 100%

CN1CCN(c2cnc3c(C4CCN(C(=O)c5ccc(OC(F)(F)F)cc5N)CC4)ncnc3c2)CC1 [BAY-885]
residual activity [1]: 100% | residual activity [2]: 85% | residual activity [3]: 38% | residual activity [4]: 93% | residual activity [5]: 100% | residual activity [6]: 100% | residual activity [7]: 95%
